Data as given in patent publication US7115632B1, “Sulfonyl aryl or heteroaryl hydroxamic acid compounds” (priority 1999, dated 2006).
Counter-ions that a name gives are not always drawn.

Legend:
Test in all cases: In vitro metalloprotease inhibition, fluorogenic MCA peptide substrate
Type in all cases: biochemical
MMP-2 = target: T1, MMP-2 (Homo sapiens, UniProt P08253)
T1 construct: made in house; provided by Dr. Gregory Goldberg, Washington University
T1 sequence (P08253 110-660): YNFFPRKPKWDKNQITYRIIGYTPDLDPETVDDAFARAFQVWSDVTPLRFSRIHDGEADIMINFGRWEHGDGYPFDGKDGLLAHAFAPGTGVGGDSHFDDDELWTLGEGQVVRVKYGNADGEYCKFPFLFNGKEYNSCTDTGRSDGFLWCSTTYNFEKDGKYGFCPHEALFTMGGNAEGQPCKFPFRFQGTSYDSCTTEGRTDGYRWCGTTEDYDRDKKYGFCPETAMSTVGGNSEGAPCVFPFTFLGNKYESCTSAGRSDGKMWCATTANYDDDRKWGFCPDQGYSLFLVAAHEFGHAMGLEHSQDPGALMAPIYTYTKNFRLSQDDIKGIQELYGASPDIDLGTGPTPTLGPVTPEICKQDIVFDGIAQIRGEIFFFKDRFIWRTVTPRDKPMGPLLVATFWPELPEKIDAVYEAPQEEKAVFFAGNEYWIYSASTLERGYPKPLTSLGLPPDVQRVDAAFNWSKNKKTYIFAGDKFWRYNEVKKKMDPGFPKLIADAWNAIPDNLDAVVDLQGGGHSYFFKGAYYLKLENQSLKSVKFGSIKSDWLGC
Method: (§1) Briefly, 4-aminophenylmercuric acetate (APMA) or trypsin-activated MMPs were incubated with various concentrations of the inhibitor compound at room temperature for 5 minutes.
(§2) The expressed enzyme was purified first over a heparin agarose column and then over a chelating zinc chloride column. The proenzyme was activated by APMA for use in the assay.
(§3) MMP-1 expressed in transfected HT-1080 cells was provided by Dr. Harold Welgus of Washington University, St. Louis, Mo. The enzyme was also activated using APMA and was then purified over a hydroxamic acid column. Dr. Welgus also provided transfected HT-1080 cells that expressed MMP-9. Transfected cells that expressed MMP-2 were provided by Dr. Gregory Goldberg, also of Washington University.
(§4) The ID50 values were calculated from those values.

MMP-13 = target: T2, MMP-13 (Homo sapiens, UniProt P45452)
T2 construct: made in house; host or cells: insect cells, baculovirus expression
Method: as §1, §2, §3, §4

MMP-1 = target: T3, MMP-1 (Homo sapiens, UniProt P03956)
T3 construct: made in house; host or cells: transfected HT-1080 cells (provided by Dr. Harold Welgus, Washington University)
T3 sequence (P03956 100-469): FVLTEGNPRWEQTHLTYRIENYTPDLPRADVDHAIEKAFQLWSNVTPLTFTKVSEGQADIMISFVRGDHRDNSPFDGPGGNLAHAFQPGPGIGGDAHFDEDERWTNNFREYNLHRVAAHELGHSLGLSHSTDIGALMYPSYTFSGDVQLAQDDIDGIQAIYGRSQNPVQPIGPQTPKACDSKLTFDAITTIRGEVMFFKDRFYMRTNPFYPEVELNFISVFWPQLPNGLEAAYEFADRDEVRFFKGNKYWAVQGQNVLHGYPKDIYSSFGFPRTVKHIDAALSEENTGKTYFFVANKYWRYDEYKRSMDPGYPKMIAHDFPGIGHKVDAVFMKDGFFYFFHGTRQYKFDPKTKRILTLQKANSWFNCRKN
Method: as §1, §2, §3, §4

SMILES | IC50 (MMP-2; Inhibition Table A) [nM] | IC50 (MMP-13; Inhibition Table A) [nM] | IC50 (MMP-1; Inhibition Table A) [nM] | IC50 (MMP-2; Inhibition Table B) [nM] | IC50 (MMP-13; Inhibition Table B) [nM] | IC50 (MMP-1; Inhibition Table B) [nM]
O=C(NO)c1ccccc1CS(=O)(=O)c1ccc(Oc2ccccc2)cc1 [Example 1, N-hydroxy-2-[[(4-phenoxyphenyl)sulfonyl]methyl]benzamide] | 10 | 45 |  |  |  | 
O=C(Cc1ccccc1S(=O)(=O)c1ccc(Oc2ccccc2)cc1)NO [Example 2, N-hydroxy-2-[(4-phenoxyphenyl)sulfonyl]benzeneacetamide] | 0.3 | 2 | 900 |  |  | 
O=C(NO)c1ccccc1NS(=O)(=O)c1ccc(Oc2ccccc2)cc1 [Example 5, N-hydroxy-2-[[(4-phenoxyphenyl)sulfonyl]amino]benzamide] | 3500 |  |  |  |  | 
COc1ccc(S(=O)(=O)Cc2ccccc2C(=O)NO)cc1 [Example 6] |  | 4000 | > 10000 |  |  | 
O=C(NO)c1ccccc1S(=O)(=O)N1CCC(c2ccccc2)CC1 [Example 9, N-Hydroxy-2-[[4-(phenyl)-1-piperidinyl]sulfonyl]benzamide] | 45 | 1500 |  |  |  | 
CC(O)(C(=O)NO)c1ccccc1S(=O)(=O)N1CCC(c2ccccc2)CC1 (stereo not shown) [Example 10] | 70 | 520 |  |  |  | 
O=C(NO)c1ccccc1S(=O)(=O)N1CCC(Oc2ccc(OC(F)(F)F)cc2)CC1 [Example 12, N-Hydroxy-2-[[4-[4-(trifluoromethoxy)phenoxy]-1-piperidinyl]sulfonyl]benzamide] | 2.2 |  |  |  |  | 
O=C(NO)c1ccccc1S(=O)(=O)N1CCC(Oc2ccc(C(F)(F)F)cc2)CC1 [Example 13, N-hydroxy-2-[[4-[4-(trifluoromethyl)phenoxy]-1-piperidinyl]sulfonyl]benzamide] |  | 28.5 |  |  |  | 
COc1ccc(S(=O)(=O)N2CCC(Oc3ccc(C(F)(F)F)cc3)CC2)c(C(=O)NO)c1OC [Example 16, N-Hydroxy-2,3-dimethoxy-6-[[4-[4-(trifluoromethyl)phenoxy]-1-piperidinyl)sulfonyl]benzamide] | 2.4 | 2.7 |  |  |  | 
O=C(NO)c1c(F)cccc1S(=O)(=O)N1CCC(Oc2ccc(C(F)(F)F)cc2)CC1 [Example 19, 2-Fluoro-N-hydroxy-6-[[4-[4-(trifluoromethyl)phenoxy]-1-piperidinyl]sulfonyl]benzamide] | 5 |  |  |  |  | 
O=C(NO)c1c(Cl)cccc1S(=O)(=O)N1CCC(Oc2ccc(C(F)(F)F)cc2)CC1 [Example 20, 2-Chloro-N-hydroxy-6-[[4-[4-(trifluoromethyl)phenoxy]-1-piperidinyl]sulfonyl]benzamide] | 1.8 | 14.8 | > 10000 |  |  | 
O=C(NO)c1ccccc1S(=O)(=O)N1CCC(Oc2ccncc2)CC1 [Example 21, N-Hydroxy-2-[[4-(4-pyridinyloxy)-1-piperidinyl]sulfonyl]benzamide] | 5.9 | 63 | > 10000 |  |  | 
COCCOc1cccc(S(=O)(=O)N2CCC(Oc3ccc(C(F)(F)F)cc3)CC2)c1C(=O)NO [Example 23, N-Hydroxy-2-(2-methoxyethoxy)-6-[[4-[4-(trifluoromethyl)phenoxy]-1-piperidinyl]sulfonyl]benzamide] |  |  |  | 1 | 4.3 | 
COc1ccc(S(=O)(=O)N2CCC(Oc3ccc(-c4ccccc4)cc3)CC2)c(C(=O)NO)c1OC [Example 28] |  |  |  | 0.4 | 1.8 | > 10000
O=C(NO)c1ccccc1S(=O)(=O)N1CCC(n2c(=O)[nH]c3ccccc32)CC1 [Example 29, 2-[[4-(2,3-Dihydro-2-oxo-1H-benzimidazol-1-yl)-1-piperidinyl]sulfonyl]-N-hydroxybenzamide] |  |  |  | 370 | 2000 | > 10000
COC1CCN(S(=O)(=O)c2ccc3c(c2C(=O)NO)OCCO3)CC1 [Example 30, 2,3-Dihydro-N-hydroxy-6-[(4-methoxy-1-piperidinyl)sulfonyl]-1,4-benzodioxin-5-carboxamide] |  |  |  | > 10000 | > 10000 | > 10000

SMILES | IC50 (MMP-2; Inhibition Table A) [nM] | IC50 (MMP-13; Inhibition Table A) [nM] | IC50 (MMP-1; Inhibition Table A) [nM] | IC50 (MMP-2; Inhibition Table B) [nM] | IC50 (MMP-13; Inhibition Table B) [nM] | IC50 (MMP-1; Inhibition Table B) [nM]
O=C(NO)c1c(S(=O)(=O)N2CCC(Oc3ccc(C(F)(F)F)cc3)CC2)ccc2c1OCCO2 [Example 31] |  |  |  | 1.4 | 7.7 | > 10000
O=C(NO)c1c(Cl)sc(Cl)c1S(=O)(=O)N1CCC(Oc2ccc(C(F)(F)F)cc2)CC1 [Example 32, 2,5-Dichloro-N-hydroxy-4-[[4-{4-(trifluoromethyl)phenoxy]-1-piperidinyl]sulfonyl]-3-thiophenecarboxamide] |  |  |  | 110 | 730 | > 10000
COc1ccccc1OC1CCN(S(=O)(=O)c2ccc(OC)c(OC)c2C(=O)NO)CC1 [Example 34, N-Hydroxy-2,3-dimethoxy-6-[[4-(2-methoxyphenoxy)-1-piperidinyl]sulfonyl]benzamide] |  |  |  | 330 | 2500 | > 10000
COc1ccc(OC)c(S(=O)(=O)N2CCC(Oc3ccc(C(F)(F)F)cc3)CC2)c1C(=O)NO [Example 35] |  |  |  | 21 | 110 | > 10000
O=C(NO)c1ccccc1S(=O)(=O)N1CCC(Oc2ccccn2)CC1 [Example 42, N-hydroxyl-2-[[4-(2-pyridinyloxy)-1-piperidinyl]sulfonyl]benzamide, monohydrochloride] |  |  |  | 42 | 1200 | 
CCCCOC1CCN(S(=O)(=O)c2ccc3c(c2C(=O)NO)OCO3)CC1 [Example 43, 5-[(4-Butoxy-1-piperidinyl)sulfonyl]-N-hydroxy-1,3-benzodioxole-4-carboxamide] |  |  |  | 200 | 3700 | > 10000
CCCCCCCOC1CCN(S(=O)(=O)c2ccc3c(c2C(=O)NO)OCO3)CC1 [Example 44, 5-[(4-Heptyloxy-1-piperidinyl)sulfonyl]-N-hydroxy-1,3-benzodioxole-4-carboxamide] |  |  |  | 206 | 330 | > 10000
COc1ccc(S(=O)(=O)N2CCC(Oc3ccc(Cl)cc3)CC2)c(C(=O)NO)c1OC [Example 46, 6-[[4-(4-Chlorophenoxy)-1-piperidinyl]sulfonyl]-N-hydroxy-2,3-dimethoxybenzamide] |  |  |  | 0.3 | 1.5 | > 10000
COc1ccc(S(=O)(=O)N2CCC(Oc3ccccc3)CC2)c(C(=O)NO)c1OC [Example 47, N-Hydroxy-2,3-dimethoxy-6-[(4-phenoxy-1-piperidinyl)sulfonyl]benzamide] |  |  |  | 1.1 | 6.7 | > 10000
O=C(NO)c1c(OC2CCOCC2)cccc1S(=O)(=O)N1CCC(Oc2ccc(C(F)(F)F)cc2)CC1 [Example 48] |  |  |  | 1 | 2.2 | > 10000
O=C(NO)c1c(S(=O)(=O)N2CCC(Oc3ccc4c(c3)OCO4)CC2)ccc2c1OCO2 [Example 49, 5-[[4-((1,3-Benzodioxol]-5-yloxy)-1-piperidinyl]sulfonyl]-N-hydroxy-1,3-benzodioxole-4-carboxamide] |  |  |  | 1.1 | 19 | > 10000
O=C(NO)c1ccccc1S(=O)(=O)N1CCN(C(=O)c2ccccc2)CC1 [Example 51, 2-[(4-Benzoyl-1-piperazinyl)sulfonyl]-N-hydroxybenzamide] |  |  |  |  |  | > 10000
COc1ccc(S(=O)(=O)N2CCN(Cc3ccc(OC(F)(F)F)cc3)CC2)c(C(=O)NO)c1OC [Example 53, N-Hydroxy-2,3-dimethoxy-6-[[4-[[4-(trifluoromethoxy)phenyl]methyl]-1-piperazinyl]sulfonyl]benzamide, monohydrochloride] |  |  |  | 240 | 1900 | > 10000
CCCCOc1ccc(N2CCN(S(=O)(=O)c3ccc(OC)c(OC)c3C(=O)NO)CC2)cc1C [Example 56, 6-[[4-(4-Butoxy-3-methylphenyl)-1-piperazinyl]sulfonyl]-N-hydroxy-2,3-dimethoxybenzamide, monohydrochloride] |  |  |  | 9 | 20 | > 10000
COc1cccc(OC2CCN(S(=O)(=O)c3ccc(OC)c(OC)c3C(=O)NO)CC2)c1 [Example 57] |  |  |  | 12.1 | 250 | > 10000
